In patent publication US20220033397A1, “PHARMACEUTICAL COMPOUNDS AND THEIR USE AS INHIBITORS OF UBIQUITIN SPECIFIC PROTEASE 19 (USP19)” (ALMAC DISCOVERY LIMITED, priority 2018, published 2022):

molecular target: T1, Full-length USP19 (Homo sapiens, UniProt O94966); test: USP19 fluorescence polarisation (FP) homogeneous assay with Ubiquitin-Lys-TAMRA substrate; format: biochemical; conditions: 2.5 nM USP19, 30 min pre-incubation, average of at least two duplicate experiments
T1 construct: Full-length USP19 was purchased from Boston Biochem (E-576); purchased Boston Biochem E-576
T1 sequence (O94966 1-1318): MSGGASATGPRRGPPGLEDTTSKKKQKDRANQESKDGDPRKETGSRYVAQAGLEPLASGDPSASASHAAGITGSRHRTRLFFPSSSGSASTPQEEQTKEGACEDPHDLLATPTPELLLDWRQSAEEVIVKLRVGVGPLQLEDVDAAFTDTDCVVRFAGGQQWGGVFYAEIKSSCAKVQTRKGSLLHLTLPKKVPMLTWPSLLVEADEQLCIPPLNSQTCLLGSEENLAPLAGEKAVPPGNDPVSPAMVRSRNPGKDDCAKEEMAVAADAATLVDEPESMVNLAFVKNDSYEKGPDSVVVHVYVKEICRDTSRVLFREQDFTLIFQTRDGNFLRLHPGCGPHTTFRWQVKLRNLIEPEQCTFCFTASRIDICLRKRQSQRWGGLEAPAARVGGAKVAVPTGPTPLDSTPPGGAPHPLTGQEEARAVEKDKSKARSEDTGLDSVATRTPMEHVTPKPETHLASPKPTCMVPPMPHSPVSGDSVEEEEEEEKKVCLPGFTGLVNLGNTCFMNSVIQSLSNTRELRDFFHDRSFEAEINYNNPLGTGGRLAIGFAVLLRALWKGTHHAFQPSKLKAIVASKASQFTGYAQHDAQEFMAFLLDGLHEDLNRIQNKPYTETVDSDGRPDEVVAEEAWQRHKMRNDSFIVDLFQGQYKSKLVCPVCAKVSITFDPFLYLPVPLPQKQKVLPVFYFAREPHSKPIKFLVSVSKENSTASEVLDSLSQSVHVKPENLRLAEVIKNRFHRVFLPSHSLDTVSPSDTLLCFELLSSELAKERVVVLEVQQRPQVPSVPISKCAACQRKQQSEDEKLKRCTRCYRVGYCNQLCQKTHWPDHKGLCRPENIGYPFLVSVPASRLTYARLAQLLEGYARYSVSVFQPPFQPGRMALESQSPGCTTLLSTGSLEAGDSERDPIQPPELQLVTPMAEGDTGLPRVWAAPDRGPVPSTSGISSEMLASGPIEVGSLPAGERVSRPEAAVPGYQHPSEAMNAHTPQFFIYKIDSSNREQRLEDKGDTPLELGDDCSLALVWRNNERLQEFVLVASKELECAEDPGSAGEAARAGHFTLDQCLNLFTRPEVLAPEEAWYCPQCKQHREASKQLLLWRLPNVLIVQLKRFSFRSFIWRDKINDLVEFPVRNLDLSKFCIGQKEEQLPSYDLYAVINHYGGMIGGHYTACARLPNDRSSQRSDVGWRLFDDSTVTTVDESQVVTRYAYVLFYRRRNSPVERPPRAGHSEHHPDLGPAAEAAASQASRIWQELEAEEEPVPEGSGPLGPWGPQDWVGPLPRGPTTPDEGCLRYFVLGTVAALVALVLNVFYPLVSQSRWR
Outline: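 Full-length USP19 preincubated 30 min at RT with inhibitor (200 μM to 2 μM series, 8–18 points) before adding 500 nM Ubiquitin-Lys-TAMRA substrate.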

Row | SMILES | IC50 [nM]
1 | COc1ccc(C2CNCCN2C(=O)N2CCC(O)(Cn3cnc(-c4ccccc4)cc3=O)C3(CCCC3)C2)cc1 (stereo not drawn) [Example 273, 3-((10-Hydroxy-7-(2-(4-methoxyphenyl)piperazine-1-carbonyl)-7-azaspiro[4.5]decan-10-yl)methyl)-6-phenylpyrimidin-4(3H)-one] | 5000 to 50000
2 | O=C(N1CCC(O)(Cn2cnc(-c3ccccc3)cc2=O)C2(CCCC2)C1)N1CCNCC1c1cccnc1 (stereo not drawn) [Example 274, 3-((10-Hydroxy-7-(2-(pyridin-3-yl)piperazine-1-carbonyl)-7-azaspiro[4.5]decan-10-yl)methyl)-6-phenylpyrimidin-4(3H)-one] | 500 to 5000
3 | O=C(N1CCC(O)(Cn2cnc(-c3ccccc3)cc2=O)C2(CCCC2)C1)N1CCNCC1C1CC1 (stereo not drawn) [Example 275, 3-((7-(2-Cyclopropylpiperazine-1-carbonyl)-10-hydroxy-7-azaspiro[4.5]decan-10-yl)methyl)-6-phenylpyrimidin-4(3H)-one] | 5000 to 50000
4 | O=C(N1CCC(O)(Cn2cnc(-c3ccccc3)cc2=O)C2(CCCC2)C1)N1CCNCC1C1CCC1 (stereo not drawn) [Example 276, 3-((7-(2-Cyclobutylpiperazine-1-carbonyl)-10-hydroxy-7-azaspiro[4.5]decan-10-yl)methyl)-6-phenylpyrimidin-4(3H)-one] | 5000 to 50000
5 | COCC1CNCCN1C(=O)N1CCC(O)(Cn2cnc(-c3ccccc3)cc2=O)C2(CCCC2)C1 (stereo not drawn) [Example 277, 3-((10-Hydroxy-7-(2-(methoxymethyl)piperazine-1-carbonyl)-7-azaspiro[4.5]decan-10-yl)methyl)-6-phenylpyrimidin-4(3H)-one] | 50000 to 250000
6 | O=C(N1CC[C@@](O)(Cn2cnc(-c3ccccc3)cc2=O)C2(CCCC2)C1)N1CCNC[C@H]1c1ccccc1 [Example 278, 3-(((S)-10-Hydroxy-7-((R)-2-phenylpiperazine-1-carbonyl)-7-azaspiro[4.5]decan-10-yl)methyl)-6-phenylpyrimidin-4(3H)-one] | < 500
7 | CC(=O)N1CCN(C(=O)N2CC[C@@](O)(Cn3cnc(-c4ccccc4)cc3=O)C3(CCCC3)C2)[C@H](c2ccccc2)C1 [Example 279, 3-(((S)-7-((R)-4-Acetyl-2-phenylpiperazine-1-carbonyl)-10-hydroxy-7-azaspiro[4.5]decan-10-yl)methyl)-6-phenylpyrimidin-4(3H)-one] | 500 to 5000
8 | O=C(N1CCC(O)(Cn2ncc(-c3ccccc3)cc2=O)C2(CCCC2)C1)N1CCOC[C@H]1c1ccccc1 (stereo partly drawn) [Example 280, 2-((10-Hydroxy-7-((R)-3-phenylmorpholine-4-carbonyl)-7-azaspiro[4.5]decan-10-yl)methyl)-5-phenylpyridazin-3(2H)-one] | < 500
9 | CN1CCN(C(=O)N2CC[C@@](O)(Cn3cnc(-c4ccccc4)cc3=O)C3(CCCC3)C2)[C@H](c2ccccc2)C1 [Example 281, 3-(((S)-10-Hydroxy-7-((R)-4-methyl-2-phenylpiperazine-1-carbonyl)-7-azaspiro[4.5]decan-10-yl)methyl)-6-phenylpyrimidin-4(3H)-one] | < 500
10 | O=C(N1CC[C@@](O)(Cn2cnc(Cl)cc2=O)C2(CCCC2)C1)N1CCOC[C@H]1c1ccc(F)cc1 [Example 282, 6-Chloro-3-(((S)-7-((R)-3-(4-fluorophenyl)morpholine-4-carbonyl)-10-hydroxy-7-azaspiro[4.5]decan-10-yl)methyl)pyrimidin-4(3H)-one] | < 500
11 | CN(C)C(=O)c1cn(C[C@]2(O)CCN(C(=O)N3CCOC[C@H]3c3ccccc3)CC2(C)C)c(=O)cc1-c1ccccc1 [Example 283, 1-(((S)-4-Hydroxy-3,3-dimethyl-1-((R)-3-phenylmorpholine-4-carbonyl)piperidin-4-yl)methyl)-N,N-dimethyl-6-oxo-4-phenyl-1,6-dihydropyridine-3-carboxamide] | < 500
12 | Cn1nccc1-c1cc(=O)n(C[C@]2(O)CCN(C(=O)N3CCOC[C@H]3c3ccc(F)cc3)CC23CCCC3)cn1 [Example 284, 3-(((S)-7-((R)-3-(4-Fluorophenyl)morpholine-4-carbonyl)-10-hydroxy-7-azaspiro[4.5]decan-10-yl)methyl)-6-(1-methyl-1H-pyrazol-5-yl)pyrimidin-4(3H)-one] | < 500
13 | Cn1cc(-c2cc(=O)n(C[C@]3(O)CCN(C(=O)N4CCOC[C@H]4c4ccc(F)cc4)CC34CCCC4)cn2)cn1 [Example 285, 3-(((S)-7-((R)-3-(4-Fluorophenyl)morpholine-4-carbonyl)-10-hydroxy-7-azaspiro[4.5]decan-10-yl)methyl)-6-(1-methyl-1H-pyrazol-4-yl)pyrimidin-4(3H)-one] | < 500
14 | CC1(C)CN(C(=O)N2CCOC[C@H]2c2ccccc2)CC[C@@]1(O)Cn1ccc(-c2ccccc2)cc1=O [Example 286] | < 500
15 | O=C(N1CC[C@@](O)(Cn2ccc(-c3ccccc3)cc2=O)C2(CCCC2)C1)N1CCNC[C@H]1c1ccccc1 [Example 287, 1-(((S)-10-Hydroxy-7-((R)-2-phenylpiperazine-1-carbonyl)-7-azaspiro[4.5]decan-10-yl)methyl)-4-phenylpyridin-2(1H)-one] | < 500
16 | CC1(C)CN(C(=O)N2CCNC[C@H]2c2ccccc2)CC[C@@]1(O)Cn1ccc(-c2ccccc2)cc1=O [Example 288, 1-(((S)-4-Hydroxy-3,3-dimethyl-1-((R)-2-phenylpiperazine-1-carbonyl)piperidin-4-yl)methyl)-4-phenylpyridin-2(1H)-one] | < 500
17 | Cn1nccc1-c1cc(=O)n(C[C@]2(O)CCN(C(=O)N3CCNC[C@H]3c3ccccc3)CC23CCCC3)cn1 [Example 289, 3-(((S)-10-Hydroxy-7-((R)-2-phenylpiperazine-1-carbonyl)-7-azaspiro[4.5]decan-10-yl)methyl)-6-(1-methyl-1H-pyrazol-5-yl)pyrimidin-4(3H)-one] | < 500
18 | O=C(N1CC[C@@](O)(Cn2cnc(N3CCCC3)cc2=O)C2(CCCC2)C1)N1CCNC[C@H]1c1ccccc1 [Example 290, 3-(((S)-10-Hydroxy-7-((R)-2-phenylpiperazine-1-carbonyl)-7-azaspiro[4.5]decan-10-yl)methyl)-6-(pyrrolidin-1-yl)pyrimidin-4(3H)-one] | < 500
19 | Cn1cc(-c2cc(=O)n(C[C@]3(O)CCN(C(=O)N4CCNC[C@H]4c4ccccc4)CC34CCCC4)cn2)cn1 [Example 291, 3-(((S)-10-Hydroxy-7-((R)-2-phenylpiperazine-1-carbonyl)-7-azaspiro[4.5]decan-10-yl)methyl)-6-(1-methyl-1H-pyrazol-4-yl)pyrimidin-4(3H)-one] | < 500
20 | O=C(N1CC[C@@](O)(Cn2cnc(C3CC3)cc2=O)C2(CCCC2)C1)N1CCNC[C@H]1c1ccccc1 [Example 292, 6-Cyclopropyl-3-(((S)-10-hydroxy-7-((R)-2-phenylpiperazine-1-carbonyl)-7-azaspiro[4.5]decan-10-yl)methyl)pyrimidin-4(3H)-one] | < 500
21 | O=C(N1CC[C@@](O)(Cn2cnc(-c3ccccc3)cc2=O)C2(CCCC2)C1)N1CCOC[C@H]1c1nc2ccccc2[nH]1 [Example 293, 3-(((S)-7-((R)-3-(1H-Benzo[d]imidazol-2-yl)morpholine-4-carbonyl)-10-hydroxy-7-azaspiro[4.5]decan-10-yl)methyl)-6-phenylpyrimidin-4(3H)-one] | 50000 to 250000
22 | O=C(N[C@H](c1ccccc1)C(F)(F)F)N1CC[C@@](O)(Cn2cnc(-c3ccccc3)cc2=O)C2(CCCC2)C1 [Example 294, (S)-10-Hydroxy-10-((6-oxo-4-phenylpyrimidin-1(6H)-yl)methyl)-N—((R)-2,2,2-trifluoro-1-phenylethyl)-7-azaspiro[4.5]decane-7-carboxamide] | < 500
23 | O=C(N1CCC(O)(Cn2cnc(-c3ccccc3)cc2=O)CC1)N1CCOC[C@H]1c1ccccc1 [Example 295, (R)-3-((4-Hydroxy-1-(3-phenylmorpholine-4-carbonyl)piperidin-4-yl)methyl)-6-phenylpyrimidin-4(3H)-one] | 500 to 5000
24 | O=C(N1CCC(O)(Cn2cnc(-c3ccccc3)cc2=O)C2(CCCCC2)C1)N1CCOC[C@H]1c1ccccc1 (stereo partly drawn) [Example 296, 3-((5-Hydroxy-2-((R)-3-phenylmorpholine-4-carbonyl)-2-azaspiro[5.5]undecan-5-yl)methyl)-6-phenylpyrimidin-4(3H)-one] | < 500
